Patent US9422309B2, “3-O-heteroaryl-ingenol” (LEO LABORATORIES LIMITED, priority 2012, dated 2016)

What was measured:
Format in all cases: cell-based
[1] = tested on: PMN's (polymorphonuclear leukocytes); assay: Neutrophil oxidative burst; conditions: Leukocyte, 40 min; 40 min incubation at rt; normalised to 5×10^−7 M PEP0005; read-out: Neutrophil oxidative burst Rel EC50 range
Protocol: PMN's (polymorphonuclear leukocytes) are isolated and purified from fresh buffy coats by sequential sedimentation, density centrifugation and lysis of contaminating erythrocytes. In brief, buffy coats are incubated with 2% methocel for 30-45 min to differentially sediment red blood cells. The leukocyte-rich supernatant is transferred to lymphoprep tubes to remove mononuclear cells by density centrifugation (400×g, 30 min). The pellet is resuspended and any remaining erythrocytes lysed using 0.2% NaCl for 30 sec before restoring isotonicity by the addition of 1.2% NaCl. This step is repeated until the cell pellet appears relatively free of red blood cells. Cells are resuspended in DPBS (Dulbecco's Phosphate Buffered Saline) (w.o. Ca^2+, Mg^2+) and the concentration adjusted to 1.4×10^6 cells/ml in HBSS (Hanks Balanced Salt solution) (w Ca^2+, Mg^2+) containing 0.1% BSA (Bovine Serum Albumin) and 5 mM glucose just prior to assay initiation. Titrated reference and test compounds are pre-mixed with HE (Hydroethidine) (10 μM final assay concentration) before addition to 96-well plates containing 2.5×10^5 cells. Following 40 min incubation at rt, changes in the respiratory burst is estimated by measuring fluorescence at 579 nm (excitation: 485 nm) using an Envision plate reader.
Test compound titration curves are fitted to a four-parameter sigmoidal curve after normalizing the effect of the test compound to the effect of the positive control (5×10^−7 M PEP0005). Rel EC50 denotes the concentration of test compound producing an effect that is midway between the fitted top and bottom. Abs EC50 is the concentration of test compound that provokes a response corresponding to 50% of the maximal effect associated with the positive control (5×10^−7 M PEP0005).

[2] = tested on: Primary human epidermal keratinocytes, HeKa; assay: HeKa cytokine release (IL-8); conditions: 6 h at 37° C., normalised to 1.5×10^−7 M PEP0005, read-out: HeKa cytokine release (IL-8) Rel EC50 range
Protocol: Primary human epidermal keratinocytes, HeKa, are seeded (10.000 cells/well) in 96-well plates the day before the assay. Test compounds are diluted in DMSO (dimethyl sulfoxide) and further diluted in assay medium and pipetted into wells of 96 well-plates containing HeKa cells. The plates are incubated for 6 h at 37° C. in humidified air with 5% CO2. Plates are centrifuged briefly to spin down cells at 4° C., the supernatant is removed and analysed by Meso Scale Discovery (MSD) 4-spot cytokine assay (Pro-inflammatory II Ultra Sensitive kit, MSD, MD, USA). The MSD assay employs a sandwich immunoassay format where capture antibodies are coated in a patterned array on the bottom of the wells of a 4-Spot-Multi-MSD plate. Standard samples are incubated in the MULTI-SPOT plates as well, and the cytokine (IL-8) binds to its corresponding capture antibody spot. The cytokine level is quantitated on a SECTOR™ Imager using a cytokine-specific Detection Antibody labelled with MSD SULFO-TAG™ reagent.
Test compound titration curves are fitted to a four-parameter sigmoidal curve after normalizing the effect of the test compound to the effect of the positive control (1.5×10^−7 M PEP0005). Rel EC50 denotes the concentration of test compound producing an effect that is midway between the fitted top and bottom.

[3] = tested on: HeLa cells; assay: Necrosis assay; conditions: Homo sapiens, 0.5 h, 30 min at 37° C., PrestoBlue, normalised to 4 10^−4 M PEP0005/ingenol mebutate, read-out: HeLa necrosis EC50 range
Protocol: HeLa cells (ATCC CCL-002) were grown in minimal essential medium (Invitrogen catalog no. 42360) containing 10% fetal bovine serum, 100 IU/ml penicillin and 100 μg/ml streptomycin. 4,000-6,000 cells were seeded into 96-well black ViewPlates-plates, clear bottom, (Perkin Elmer) in 100 μl medium and incubated overnight. Compounds were dissolved and pre-diluted in DMSO in 96-well polypropylene plates (Greiner) in a concentration range of 15 μM to 600 μM. At the time of the experiment cell plates were placed on heating blocks at 37° C., medium was removed and 40 μl fresh, pre-warmed medium was added per well. Cells were incubated for 15 min before addition of compounds. In parallel, 3 μl of compounds were diluted with 197 μl growth medium on a Tecan freedom-EVO pipetting station using 250 μl/s pipetting speed, in order to ensure effective mixing of the highly concentrated compound solutions with the aqueous phase.
These pre-dilution plates were then equilibrated on heating blocks at 37° C. for 10 min. 80 μl pre-diluted compound were transferred manually to the corresponding wells containing HeLa cells yielding compound concentrations of 10 μM to 400 μM. Control conditions were 1% DMSO in growth medium (100% viability) and 400 μM ingenol mebutate in growth medium (0% viability). Plates were incubated on the heating blocks at 37° C. for 30 min. At the end of the incubation 10 μl PrestoBlue reagent (Invitrogen) were added to each well, plates were sealed with black seal, followed by incubation at 37° C. for 10 min with gentle shaking (150 rpm). Subsequently, plates were placed at room temperature for 20-30 min. Plates were read immediately after on an Envision Fluorescence reader (Perkin Elmer) with excitation at 535 nm and emission at 630 nm. Test compound titration curves were fitted to a four-parameter sigmoidal curve after normalizing the effect of the test compound to the effect of the positive control (4 10^−4 M PEP0005/ingenol mebutate). Abs EC50 denotes the concentration of test compound producing 50% effect.

Structure (SMILES)	EC50 [1] [nM]	EC50 [2] [nM]	EC50 [3] [nM]
CC1=C[C@]23C(=O)[C@@H](C=C(CO)[C@@H](O)[C@]2(O)[C@H]1Oc1nccc2ccccc12)[C@H]1[C@@H](C[C@H]3C)C1(C)C [Compound 119, 3-O-(1-Isoquinolyl)-ingenol]	20 to 100	< 20	150000 to 350000
CC1=C[C@]23C(=O)[C@@H](C=C(CO)[C@@H](O)[C@]2(O)[C@H]1Oc1nccc(C(F)(F)F)n1)[C@H]1[C@@H](C[C@H]3C)C1(C)C [Compound 114, 3-O-(4-(Trifluoromethyl)-pyrimidin-2-yl)-ingenol]	≥ 100	≥ 100	≥ 350000
CC1=C[C@]23C(=O)[C@@H](C=C(CO)[C@@H](O)[C@]2(O)[C@H]1Oc1cc(Br)ccn1)[C@H]1[C@@H](C[C@H]3C)C1(C)C [Compound 111, 3-O-(4-Bromo-2-pyridyl)-ingenol]	20 to 100	20 to 100	150000 to 350000
CC1=C[C@]23C(=O)[C@@H](C=C(CO)[C@@H](O)[C@]2(O)[C@H]1Oc1ncccc1Cl)[C@H]1[C@@H](C[C@H]3C)C1(C)C [Compound 115, 3-O-(3-Chloro-2-pyridyl)-ingenol]	20 to 100	20 to 100	150000 to 350000
CC1=C[C@]23C(=O)[C@@H](C=C(CO)[C@@H](O)[C@]2(O)[C@H]1Oc1ccc(C(F)(F)F)cn1)[C@H]1[C@@H](C[C@H]3C)C1(C)C [Compound 103, 3-O-(5-(Trifluoromethyl)-2-pyridyl)-ingenol]		20 to 100	150000 to 350000
CC1=C[C@]23C(=O)[C@@H](C=C(CO)[C@@H](O)[C@]2(O)[C@H]1Oc1nccn1C)[C@H]1[C@@H](C[C@H]3C)C1(C)C [Compound 108, 3-O-(1-Methylimidazol-2-yl)-ingenol]	≥ 100	≥ 100	≥ 350000
CC1=C[C@]23C(=O)[C@@H](C=C(CO)[C@@H](O)[C@]2(O)[C@H]1Oc1noc2ccc(Cl)cc12)[C@H]1[C@@H](C[C@H]3C)C1(C)C [Compound 131, 3-O-(5-Chloro-1,2-benzoxazol-3-yl)-ingenol]	< 20	< 20	< 150000
CC1=C[C@]23C(=O)[C@@H](C=C(CO)[C@@H](O)[C@]2(O)[C@H]1Oc1ncccc1F)[C@H]1[C@@H](C[C@H]3C)C1(C)C [Compound 112, 3-O-(3-Fluoro-2-pyridyl)-ingenol]	20 to 100	≥ 100	≥ 350000
CC1=C[C@]23C(=O)[C@@H](C=C(CO)[C@@H](O)[C@]2(O)[C@H]1Oc1nccc2sccc12)[C@H]1[C@@H](C[C@H]3C)C1(C)C [Compound 127, 3-O-(Thieno[3,2-c]pyridine-4-yl)-ingenol]	20 to 100	20 to 100	150000 to 350000
CC1=C[C@]23C(=O)[C@@H](C=C(CO)[C@@H](O)[C@]2(O)[C@H]1Oc1nccn1C1CCCC1)[C@H]1[C@@H](C[C@H]3C)C1(C)C [Compound 120, 3-O-(1-Cyclopentylimidazol-2-yl)-ingenol]	< 20	< 20	150000 to 350000
CC1=C[C@]23C(=O)[C@@H](C=C(CO)[C@@H](O)[C@]2(O)[C@H]1Oc1ncnc(Cl)c1C)[C@H]1[C@@H](C[C@H]3C)C1(C)C [Compound 101, 3-O-(6-Chloro-5-methyl-pyrimidin-4-yl)-ingenol]	20 to 100	< 20	< 150000
CC1=C[C@]23C(=O)[C@@H](C=C(CO)[C@@H](O)[C@]2(O)[C@H]1Oc1ncc(C(F)(F)F)cn1)[C@H]1[C@@H](C[C@H]3C)C1(C)C [Compound 110, 3-O-(5-(Trifluoromethyl)-pyrimidin-2-yl)-ingenol]	≥ 100	≥ 100	≥ 350000
CC1=C[C@]23C(=O)[C@@H](C=C(CO)[C@@H](O)[C@]2(O)[C@H]1Oc1noc2cc(Cl)ccc12)[C@H]1[C@@H](C[C@H]3C)C1(C)C [Compound 125, 3-O-(6-Chloro-1,2-benzoxazol-3-yl)-ingenol]	< 20	< 20	< 150000
CC1=C[C@]23C(=O)[C@@H](C=C(CO)[C@@H](O)[C@]2(O)[C@H]1Oc1cc(C(F)(F)F)ccn1)[C@H]1[C@@H](C[C@H]3C)C1(C)C [Compound 113, 3-O-(4-(Trifluoromethyl)-2-pyridyl)-ingenol]	20 to 100	20 to 100	150000 to 350000
COc1ccc2onc(O[C@H]3C(C)=C[C@]45C(=O)[C@@H](C=C(CO)[C@@H](O)[C@]34O)[C@H]3[C@@H](C[C@H]5C)C3(C)C)c2c1 [Compound 130, 3-O-(5-Methoxy-1,2-benzoxazol-3-yl)-ingenol]	< 20	< 20	150000 to 350000
C=CCn1ccnc1O[C@H]1C(C)=C[C@]23C(=O)[C@@H](C=C(CO)[C@@H](O)[C@]12O)[C@H]1[C@@H](C[C@H]3C)C1(C)C [Compound 109, 3-O-(1-Allylimidazol-2-yl)-ingenol]	20 to 100		≥ 350000
CC1=C[C@]23C(=O)[C@@H](C=C(CO)[C@@H](O)[C@]2(O)[C@H]1Oc1cccc(C(F)(F)F)n1)[C@H]1[C@@H](C[C@H]3C)C1(C)C [Compound 117, 3-O-(6-(Trifluoromethyl)-2-pyridyl)-ingenol]	≥ 100	≥ 100	≥ 350000
CC1=C[C@]23C(=O)[C@@H](C=C(CO)[C@@H](O)[C@]2(O)[C@H]1Oc1nccn1CCF)[C@H]1[C@@H](C[C@H]3C)C1(C)C [Compound 122, 3-O-(1-(2-Fluoroethyl)imidazol-2-yl)-ingenol]	≥ 100	≥ 100	
CC1=C[C@]23C(=O)[C@@H](C=C(CO)[C@@H](O)[C@]2(O)[C@H]1Oc1nccc2occc12)[C@H]1[C@@H](C[C@H]3C)C1(C)C [Compound 126, 3-O-(Furo[3,2-c]pyridine-4-yl)-ingenol]	20 to 100		150000 to 350000
CC1=C[C@]23C(=O)[C@@H](C=C(CO)[C@@H](O)[C@]2(O)[C@H]1Oc1nccn1CC(F)F)[C@H]1[C@@H](C[C@H]3C)C1(C)C [Compound 121, 3-O-(1-(2,2-Difluoroethyl)imidazol-2-yl)-ingenol]	20 to 100	≥ 100	
